Legend:
MOLM-14 [1] = assay: Antiproliferative activity against human MOLM-14 cells harboring FLT3 ITD/D835Y double mutant assessed as inhibition of cell growth incubated for 72 hrs by EZ-Cytox colorimetric assay; format: functional
[2] = biological target: T1, Receptor-type tyrosine-protein kinase FLT3 (Homo sapiens, UniProt P36888); assay: Inhibition of human recombinant His-tagged FLT3 kinase domain (564 to 958 residues) expressed in baculovirus expression system incubated for 30 mins in presence of ATP by HTRF analysis
T1 sequence (P36888 whole entry): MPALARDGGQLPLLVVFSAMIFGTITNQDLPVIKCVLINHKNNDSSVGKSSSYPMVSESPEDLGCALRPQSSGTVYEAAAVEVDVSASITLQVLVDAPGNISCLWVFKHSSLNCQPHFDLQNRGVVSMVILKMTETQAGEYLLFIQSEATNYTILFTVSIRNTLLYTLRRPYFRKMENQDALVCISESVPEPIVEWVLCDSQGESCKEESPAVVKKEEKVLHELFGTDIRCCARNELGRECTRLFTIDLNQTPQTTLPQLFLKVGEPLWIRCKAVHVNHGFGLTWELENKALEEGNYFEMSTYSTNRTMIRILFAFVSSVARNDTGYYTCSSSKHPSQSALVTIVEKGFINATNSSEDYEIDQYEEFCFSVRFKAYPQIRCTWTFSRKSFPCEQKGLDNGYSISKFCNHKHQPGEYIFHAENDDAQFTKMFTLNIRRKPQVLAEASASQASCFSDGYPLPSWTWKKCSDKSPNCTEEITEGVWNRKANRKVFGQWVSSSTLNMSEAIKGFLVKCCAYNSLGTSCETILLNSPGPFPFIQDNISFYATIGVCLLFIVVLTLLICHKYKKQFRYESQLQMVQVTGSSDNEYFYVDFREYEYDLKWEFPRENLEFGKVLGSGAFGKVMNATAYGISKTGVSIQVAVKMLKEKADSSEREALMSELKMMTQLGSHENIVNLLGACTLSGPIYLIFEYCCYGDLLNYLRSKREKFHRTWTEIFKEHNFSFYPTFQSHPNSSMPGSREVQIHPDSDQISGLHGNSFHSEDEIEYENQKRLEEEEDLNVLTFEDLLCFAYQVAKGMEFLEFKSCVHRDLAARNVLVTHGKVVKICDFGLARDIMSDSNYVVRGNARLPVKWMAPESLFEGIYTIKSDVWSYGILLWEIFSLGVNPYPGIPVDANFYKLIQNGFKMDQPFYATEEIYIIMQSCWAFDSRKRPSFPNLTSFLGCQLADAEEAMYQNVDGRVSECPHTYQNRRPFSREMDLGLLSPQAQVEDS

MOLM-14 [3] = assay: Antiproliferative activity against human MOLM-14 cells assessed as inhibition of cell growth incubated for 72 hrs by EZ-Cytox colorimetric assay; format: functional
[4] = biological target: Receptor-type tyrosine-protein kinase FLT3 (Homo sapiens, UniProt P36888, D835Y); assay: Inhibition of human recombinant His-tagged FLT3/D835Y mutant expressed in baculovirus expression system incubated for 30 mins in presence of ATP by HTRF analysis
MV4-11 = assay: Antiproliferative activity against human MV4-11 cells assessed as inhibition of cell growth incubated for 72 hrs by EZ-Cytox colorimetric assay; format: functional
MOLM-14 [5] = assay: Antiproliferative activity against human MOLM-14 cells harboring FLT3 ITD/F691L double mutant assessed as inhibition of cell growth incubated for 72 hrs by EZ-Cytox colorimetric assay; format: functional
[6] = AUClast in ICR mouse at 10 mg/kg, iv measured upto 24 hrs; format: ADME, organism-based; set-up: time < 24 hrs, dose 10 mg/kg, route iv; conditions: in vivo
[7] = Half life in ICR mouse at 10 mg/kg, iv measured upto 24 hrs; format: ADME, organism-based; conditions: in vivo
[8] = Volume of distribution at steady state in ICR mouse at 10 mg/kg, iv measured upto 24 hrs; format: ADME, organism-based; conditions: in vivo, read-out: Vdss
[9] = Clearance in ICR mouse at 10 mg/kg, iv measured upto 24 hrs; format: ADME, organism-based; conditions: in vivo
PC-3 = assay: Antiproliferative activity against human PC-3 cells assessed as inhibition of cell growth at 1 uM incubated for 72 hrs by EZ-Cytox colorimetric assay relative to control; format: functional
HCT-116 = assay: Antiproliferative activity against human HCT-116 cells assessed as inhibition of cell growth at 1 uM incubated for 72 hrs by EZ-Cytox colorimetric assay relative to control; format: functional
BaF3 [10] = assay: Antiproliferative activity against mouse BaF3 cells harboring FLT3 ITD/D835Y double mutant assessed as inhibition of cell growth incubated for 72 hrs by EZ-Cytox colorimetric assay; format: functional
K562 = assay: Antiproliferative activity against human K562 cells assessed as inhibition of cell growth at 1 uM incubated for 72 hrs by EZ-Cytox colorimetric assay relative to control; format: functional
Huh-7 = assay: Antiproliferative activity against human Huh-7 cells assessed as inhibition of cell growth incubated for 72 hrs by EZ-Cytox colorimetric assay; format: functional
MDA-MB-231 = assay: Antiproliferative activity against human MDA-MB-231 cells assessed as inhibition of cell growth at 1 uM incubated for 72 hrs by EZ-Cytox colorimetric assay relative to control; format: functional
A549 = assay: Antiproliferative activity against human A549 cells assessed as inhibition of cell growth at 1 uM incubated for 72 hrs by EZ-Cytox colorimetric assay relative to control; format: functional
BaF3 [11] = assay: Antiproliferative activity against mouse BaF3 cells harboring FLT3 ITD mutant assessed as inhibition of cell growth incubated for 72 hrs by EZ-Cytox colorimetric assay; format: functional
BaF3 [12] = assay: Antiproliferative activity against mouse BaF3 cells harboring FLT3 ITD/F691L double mutant assessed as inhibition of cell growth incubated for 72 hrs by EZ-Cytox colorimetric assay; format: functional
HepG2 = assay: Antiproliferative activity against human HepG2 cells assessed as inhibition of cell growth at 1 uM incubated for 72 hrs by EZ-Cytox colorimetric assay relative to control; format: functional

Row | Structure (SMILES) | GI50 (MOLM-14 [1]) [nM] | IC50 [2] [nM] | GI50 (MOLM-14 [3]) [nM] | IC50 [4] [nM] | GI50 (MV4-11) [nM] | further results
1 | CN1CC[C@@H](NC(=O)CO/N=C2/C(=C3/C(=O)Nc4ccccc43)Nc3ccccc32)C1 | 28.6 | 1.4 | 30.2 | 2.19 | 10.5 | 
2 | CN1CCN(C(=O)CO/N=C2/C(=C3/C(=O)Nc4ccccc43)Nc3ccccc32)CC1 | 23.5 | 1.17 | 27.8 | 0.52 | 12.2 | 
3 | O=C1Nc2ccc(F)cc2/C1=C1/Nc2ccccc2/C1=N\OCCS(=O)(=O)N1CCNCC1 |  | > 50 |  | > 50 | 842 | 
4 | O=C1Nc2ccccc2/C1=C1/Nc2ccccc2/C1=N\OCCC(=O)N1CCNCC1 |  |  |  | 2.89 |  | 
5 | CN1CC[C@H](NC(=O)CO/N=C2/C(=C3/C(=O)Nc4ccccc43)Nc3ccccc32)C1 | 21.1 | 2.01 | 22.1 | 1.91 | 6.12 | 
6 | CN1CCN(C(=O)CO/N=C2/C(=C3/C(=O)Nc4ccc(F)cc43)Nc3ccccc32)CC1 | 26.1 | 0.93 | 28 | 0.35 | 6.49 | 
7 | O=C1Nc2ccccc2/C1=C1/Nc2ccccc2/C1=N\OCS(=O)(=O)N1CCNCC1 |  |  |  | 3.78 |  | 
8 | O=C1Nc2ccc(Br)cc2/C1=C1/Nc2ccccc2/C1=N\OCC(=O)N1CCNCC1 | 16.1 | 0.67 | 13.9 | 0.22 | 1.27 | 
9 | NC1CCN(C(=O)CO/N=C2/C(=C3/C(=O)Nc4ccccc43)Nc3ccccc32)CC1 | 38.9 | 2.07 | 48.6 | 3.07 | 17.3 | 
10 | CN1CCC(NC(=O)CO/N=C2/C(=C3/C(=O)Nc4ccc(F)cc43)Nc3ccccc32)CC1 | 60.6 | 7.31 | 75.9 | 14.3 | 38.7 | 
11 | NC1CCN(C(=O)CO/N=C2/C(=C3/C(=O)Nc4ccc(F)cc43)Nc3ccccc32)CC1 | 28.1 | 2.54 | 36.7 | 3.45 | 9.76 | 
12 | Cl.O=C(CO/N=C1/C(=C2/C(=O)Nc3ccccc32)Nc2ccccc21)N[C@@H]1CCNC1 | 3.49 | 0.29 | 2.73 | 0.2 | 0.52 | GI50 (MOLM-14 [5]): 3.23 nM; AUC(0-t) at 24 h [6]: 367 ng·h/mL; half-life [7]: 222 min; Vd [8]: 103 L/kg; clearance [9]: 323 mL/min/kg
13 | O=C(CO/N=C1/C(=C2/C(=O)Nc3ccccc32)Nc2ccccc21)NC1CNC1 | 22.3 | 4.95 | 19.6 | 3.25 | 4.95 | 
14 | O=C1Nc2ccc(F)cc2/C1=C1/Nc2ccccc2/C1=N\OCCC(=O)N1CCNCC1 | 112 | 1.23 | 111 | 3.41 | 29.5 | 
15 | O=C1Nc2ccc(OC(F)(F)F)cc2/C1=C1/Nc2ccccc2/C1=N\OCC(=O)N1CCNCC1 | 87.5 | 3.65 | 71.9 | 1.62 | 27.4 | 
16 | O=C(CO/N=C1/C(=C2/C(=O)Nc3ccc(Cl)cc32)Nc2ccccc21)NC1CCNCC1 | 35.1 | 1.18 | 8.56 | 1.08 | 1.08 | 

Row | Structure (SMILES) | GI50 (MOLM-14 [1]) [nM] | IC50 [2] [nM] | GI50 (MOLM-14 [3]) [nM] | IC50 [4] [nM] | GI50 (MV4-11) [nM] | further results
17 | O=C(CO/N=C1/C(=C2/C(=O)Nc3ccccc32)Nc2ccccc21)N[C@H]1CCNC1 | 4.88 | 0.64 | 5.35 | 0.2 | 0.68 | GI50 (MOLM-14 [5]): 10.7 nM
18 | O=C1Nc2ccc(F)cc2/C1=C1/Nc2ccccc2/C1=N\OCCN1CCNCC1 | 23.1 |  | 25.3 |  | 3.69 | GI50 (MOLM-14 [5]): 75.6 nM
19 | COc1ccc2c(c1)/C(=C1/Nc3ccccc3/C1=N\OCC(=O)N1CCNCC1)C(=O)N2 | 36.4 | 1.66 | 40.4 | 1.61 | 8.39 | 
20 | NC1CCN(C(=O)CO/N=C2/C(=C3/C(=O)Nc4ccc(Cl)cc43)Nc3ccccc32)CC1 | 43.2 | 1.82 | 40.3 | 1.34 | 10.5 | 
21 | O=C1Nc2ccc(F)cc2/C1=C1/Nc2ccccc2/C1=N\OCS(=O)(=O)N1CCNCC1 | 30.8 | 3.29 | 46.2 | 2.71 | 9.58 | 
22 | O=C1Nc2ccc(Cl)cc2/C1=C1/Nc2ccccc2/C1=N\OCC(=O)N1CCNCC1 | 12.7 | 0.27 | 7.22 | 0.2 | 0.76 | 
23 | CN1CCN(C(=O)CO/N=C2/C(=C3/C(=O)Nc4ccc(Cl)cc43)Nc3ccccc32)CC1 | 59.1 | 1.3 | 103 | 0.39 | 18.3 | 
24 | CCc1nc(C(N)=O)c(Nc2ccc(N3CCC(N4CCN(C)CC4)CC3)c(OC)c2)cc1NC1CCOCC1 | 19.4 |  | 35.4 |  | 8.2 | inhibition at 1 µM (PC-3): 44.3%; inhibition at 1 µM (HCT-116): 47.7%; GI50 (MOLM-14 [5]): 70.1 nM; GI50 (BaF3 [10]): 2.45 nM; inhibition at 1 µM (K562): 74.6%; GI50 (Huh-7): 435 nM; inhibition at 1 µM (MDA-MB-231): 42.1%; inhibition at 1 µM (A549): 4.31%; GI50 (BaF3 [11]): 1.9 nM; GI50 (BaF3 [12]): 38 nM; inhibition at 1 µM (HepG2): 46.9%
25 | CN1CC(NC(=O)CO/N=C2/C(=C3/C(=O)Nc4ccccc43)Nc3ccccc32)C1 | 17.9 | 0.79 | 17.4 | 0.75 | 2.61 | 
26 | O=C(CO/N=C1/C(=C2/C(=O)Nc3ccc(F)cc32)Nc2ccccc21)NC1CCNCC1 | 25.8 | 2.62 | 18.6 | 2.16 | 3.27 | 
27 | O=C1Nc2ccc(F)cc2/C1=C1/Nc2ccccc2/C1=N\OCC(=O)N1CCNCC1 | 7.13 | 0.29 | 7.17 | 0.18 | 1.23 | 
28 | O=C(CO/N=C1/C(=C2/C(=O)Nc3ccccc32)Nc2ccccc21)NC1CCNCC1 | 23.8 | 2.02 | 25.6 | 1.12 | 7.01 | 
29 | O=C1Nc2ccc(I)cc2/C1=C1/Nc2ccccc2/C1=N\OCC(=O)N1CCNCC1 | 20.9 | 0.8 | 23.7 | 0.45 | 3.72 | 
30 | CN1CCC(NC(=O)CO/N=C2/C(=C3/C(=O)Nc4ccc(Cl)cc43)Nc3ccccc32)CC1 | 123 | 15 | 67 | 21.2 | 16.2 | 
31 | CN1CCC(NC(=O)CO/N=C2/C(=C3/C(=O)Nc4ccccc43)Nc3ccccc32)CC1 | 56.3 | 15.8 | 133 | 53.5 | 43.6 | 

Source: ChEMBL document CHEMBL5120851, “Discovery of indirubin-3'-aminooxy-acetamide derivatives as potent and selective FLT3/D835Y mutant kinase inhibitors for acute myeloid leukemia” (Eur J Med Chem, 2022)
